Experimental data published in patent US20260297081A1, “COMPOUNDS AND METHODS OF TREATING CANCERS” (Cullgen Inc., priority 2023, published 2026).

Legend:
MCF7 cells = assay: Anti-proliferation (viability) of MCF7 cells (Table 7, FIG. 2B); type: cell-based; conditions: Homo sapiens, MCF7, MCF7 cells, 3-6 days, 10-point serial dilution; read-out: GI IC50 in MCF-7
CDK4 = CDK4 (Homo sapiens, UniProt P11802+Q16531); assay: CDK4 percentage degradation in Calu-1 cells (Table 6); type: cell-based; parameters: Cells that express cyclin D1-3 and CDK4/6 proteins were treated with heterobifunctional compounds; endogenous in cells; host or cells: Calu-1; conditions: 16 hours; for inhibition at 0.04 µM: 40 nM; for inhibition at 0.2 µM: 200 nM
Sequence of CDK4 (P11802 2-303 limits assumed): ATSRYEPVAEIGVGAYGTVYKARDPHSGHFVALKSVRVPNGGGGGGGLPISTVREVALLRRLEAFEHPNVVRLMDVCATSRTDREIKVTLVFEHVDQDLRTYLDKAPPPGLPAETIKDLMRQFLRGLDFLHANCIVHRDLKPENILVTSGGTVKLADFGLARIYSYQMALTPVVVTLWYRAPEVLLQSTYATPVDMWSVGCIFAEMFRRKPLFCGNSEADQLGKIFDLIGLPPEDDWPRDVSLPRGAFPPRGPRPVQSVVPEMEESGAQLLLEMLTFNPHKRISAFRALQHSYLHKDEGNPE
Sequence of CDK4 (P24385 whole entry partner): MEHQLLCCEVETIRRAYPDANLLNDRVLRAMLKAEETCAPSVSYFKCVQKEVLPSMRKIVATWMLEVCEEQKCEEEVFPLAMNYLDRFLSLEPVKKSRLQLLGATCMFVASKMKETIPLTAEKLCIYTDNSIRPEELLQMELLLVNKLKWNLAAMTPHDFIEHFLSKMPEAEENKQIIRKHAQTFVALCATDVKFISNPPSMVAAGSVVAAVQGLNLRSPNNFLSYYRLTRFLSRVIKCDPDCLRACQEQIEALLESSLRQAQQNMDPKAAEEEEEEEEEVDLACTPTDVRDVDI
Sequence of CDK4 (Q16531 2-1140 limits assumed): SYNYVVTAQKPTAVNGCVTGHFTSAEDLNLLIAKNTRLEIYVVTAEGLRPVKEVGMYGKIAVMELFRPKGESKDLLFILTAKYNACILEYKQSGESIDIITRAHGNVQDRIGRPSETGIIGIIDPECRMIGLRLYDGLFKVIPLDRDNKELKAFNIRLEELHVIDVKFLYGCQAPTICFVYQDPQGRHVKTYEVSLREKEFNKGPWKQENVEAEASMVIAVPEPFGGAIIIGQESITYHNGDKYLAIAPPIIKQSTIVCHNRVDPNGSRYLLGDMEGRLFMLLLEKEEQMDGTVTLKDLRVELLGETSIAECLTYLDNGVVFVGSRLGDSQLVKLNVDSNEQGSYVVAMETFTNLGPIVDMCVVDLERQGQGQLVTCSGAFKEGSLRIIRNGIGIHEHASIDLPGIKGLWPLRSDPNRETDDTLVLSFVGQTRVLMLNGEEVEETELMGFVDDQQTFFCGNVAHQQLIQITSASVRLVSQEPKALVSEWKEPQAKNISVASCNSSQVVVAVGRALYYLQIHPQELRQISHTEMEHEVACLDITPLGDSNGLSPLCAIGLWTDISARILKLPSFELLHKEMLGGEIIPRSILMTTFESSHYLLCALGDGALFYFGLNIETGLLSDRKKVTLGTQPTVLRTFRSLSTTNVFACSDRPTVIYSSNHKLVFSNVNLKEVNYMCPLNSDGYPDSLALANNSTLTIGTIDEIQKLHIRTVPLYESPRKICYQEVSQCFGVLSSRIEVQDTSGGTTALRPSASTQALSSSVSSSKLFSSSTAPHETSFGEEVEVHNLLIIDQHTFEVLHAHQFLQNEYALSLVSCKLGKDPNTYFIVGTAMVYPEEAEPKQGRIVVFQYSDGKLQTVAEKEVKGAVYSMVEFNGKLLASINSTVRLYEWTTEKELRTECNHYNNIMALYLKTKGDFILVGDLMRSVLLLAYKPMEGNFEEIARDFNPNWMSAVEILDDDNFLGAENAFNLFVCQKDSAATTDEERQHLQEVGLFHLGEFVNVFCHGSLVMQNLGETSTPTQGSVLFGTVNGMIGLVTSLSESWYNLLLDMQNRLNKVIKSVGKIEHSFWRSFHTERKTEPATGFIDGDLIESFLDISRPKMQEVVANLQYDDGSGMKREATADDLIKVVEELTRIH
Outline: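 Calu-1 cells exposed to heterobifunctional compounds at 40 nM or 200 nM for 16 h. Cyclin D1 and CDK4 levels measured by Western blot of RIPA lysates (BCA-normalised loading), bands quantified by densitometry and expressed as percentage degradation.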

| Compound | IC50 (MCF7 cells) [nM] | inhibition at 0.04 µM (CDK4) [%] | inhibition at 0.2 µM (CDK4) [%] |
| --- | --- | --- | --- |
| CNc1ccc(C(=O)Nc2ccc(F)c(C)n2)c(NC2CC3(CC(NC(=O)CN4CCN(c5ccc(Nc6ncc7c(C)c(C(C)=O)c(=O)n(C8CCCC8)c7n6)nc5)CC4)C3)C2)n1 (stereo not drawn) [CPD-221, 2-((6-(2-(4-(6-((6-acetyl-8-cyclopentyl-5-methyl-7-oxo-7,8-dihydropyrido[2,3-d]pyrimidin-2-yl)amino)pyridin-3-yl)piperazin-1-yl)acetamido)spiro[3.3]heptan-2-yl)amino)-N-(5-fluoro-6-methylpyridin-2-yl)-6-(methylamino)nicotinamide] | > 100 | 50 to 80 | 50 to 80 |
| CNc1ccc(C(=O)Nc2ccc(N(C)C)nn2)c(N[C@H]2CC[C@H](NC(=O)CCN3CCN(c4ccc(Nc5ncc6c(C)c(C(C)=O)c(=O)n(C7CCCC7)c6n5)nc4)CC3)CC2)n1 [CPD-223, 2-((trans-4-(3-(4-(6-((6-acetyl-8-cyclopentyl-5-methyl-7-oxo-7,8-dihydropyrido[2,3-d]pyrimidin-2-yl)amino)pyridin-3-yl)piperazin-1-yl)propanamido)cyclohexyl)amino)-N-(6-(dimethylamino)pyridazin-3-yl)-6-(methylamino)nicotinamide] | 50 to 100 | 50 to 80 | 50 to 80 |
| CNc1ccc(C(=O)Nc2ccc(N(C)C)nn2)c(NC2CC3(C2)CN(C(=O)CC(C)N2CCN(c4ccc(Nc5ncc6c(C)c(C(C)=O)c(=O)n(C7CCCC7)c6n5)nc4)CC2)C3)n1 (stereo not drawn) [CPD-224, 2-((2-(3-(4-(6-((6-acetyl-8-cyclopentyl-5-methyl-7-oxo-7,8-dihydropyrido[2,3-d]pyrimidin-2-yl)amino)pyridin-3-yl)piperazin-1-yl)butanoyl)-2-azaspiro[3.3]heptan-6-yl)amino)-N-(6-(dimethylamino)pyridazin-3-yl)-6-(methylamino)nicotinamide] | < 50 | 30 to 50 | 30 to 50 |
| [2H]C([2H])([2H])Nc1ccc(C(=O)Nc2cccc(C)n2)c(NC2CC3(CC(NC(=O)CN4CCN(c5ccc(Nc6ncc7c(C)c(C(C)=O)c(=O)n(C8CCCC8)c7n6)nc5)CC4)C3)C2)n1 (stereo not drawn) [CPD-232, 2-((6-(2-(4-(6-((6-acetyl-8-cyclopentyl-5-methyl-7-oxo-7,8-dihydropyrido[2,3-d]pyrimidin-2-yl)amino)pyridin-3-yl)piperazin-1-yl)acetamido)spiro[3.3]heptan-2-yl)amino)-6-((methyl-d3)amino)-N-(6-methylpyridin-2-yl)nicotinamide] | 50 to 100 | 30 to 50 | 50 to 80 |
| [2H]C([2H])([2H])Nc1ccc(C(=O)Nc2cn(C)c(C3CC3)n2)c(NC2CC3(CC(NC(=O)CN4CCN(c5ccc(Nc6ncc7c(C)c(C(C)=O)c(=O)n(C8CCCC8)c7n6)nc5)CC4)C3)C2)n1 (stereo not drawn) [CPD-237, 2-((6-(2-(4-(6-((6-acetyl-8-cyclopentyl-5-methyl-7-oxo-7,8-dihydropyrido[2,3-d]pyrimidin-2-yl)amino)pyridin-3-yl)piperazin-1-yl)acetamido)spiro[3.3]heptan-2-yl)amino)-N-(2-cyclopropyl-1-methyl-1H-imidazol-4-yl)-6-((methyl-d3)amino)nicotinamide] | > 100 | 50 to 80 | 50 to 80 |
| [2H]C([2H])([2H])Nc1ccc(C(=O)Nc2ccc(N(C)C)nn2)c(NC2CC3(CC(NC(=O)CN4CCN(c5ccc(Nc6ncc7c(C)c(C(C)=O)c(=O)n(C8CCCC8)c7n6)nc5)CC4)C3)C2)n1 (stereo not drawn) [CPD-241, 2-((6-(2-(4-(6-((6-acetyl-8-cyclopentyl-5-methyl-7-oxo-7,8-dihydropyrido[2,3-d]pyrimidin-2-yl)amino)pyridin-3-yl)piperazin-1-yl)acetamido)spiro[3.3]heptan-2-yl)amino)-N-(6-(dimethylamino)pyridazin-3-yl)-6-((methyl-d3)amino)nicotinamide] | 50 to 100 | 50 to 80 | 50 to 80 |
| CNc1ccc(C(=O)Nc2ccc(N(C)C)nn2)c(NC2CC(NC(=O)C(C)N3CCN(c4ccc(Nc5ncc6c(C)c(C(C)=O)c(=O)n(C7CCCC7)c6n5)nc4)CC3)C2)n1 (stereo not drawn) [CPD-242, 2-((3-(2-(4-(6-((6-acetyl-8-cyclopentyl-5-methyl-7-oxo-7,8-dihydropyrido[2,3-d]pyrimidin-2-yl)amino)pyridin-3-yl)piperazin-1-yl)propanamido)cyclobutyl)amino)-N-(6-(dimethylamino)pyridazin-3-yl)-6-(methylamino)nicotinamide] | > 100 | 50 to 80 | 50 to 80 |
| [2H]C([2H])([2H])Nc1ccc(C(=O)Nc2cc(C)n(C)n2)c(NC2CC3(CC(NC(=O)CN4CCN(c5ccc(Nc6ncc7c(C)c(C(C)=O)c(=O)n(C8CCCC8)c7n6)nc5)CC4)C3)C2)n1 (stereo not drawn) [CPD-244, 2-((6-(2-(4-(6-((6-acetyl-8-cyclopentyl-5-methyl-7-oxo-7,8-dihydropyrido[2,3-d]pyrimidin-2-yl)amino)pyridin-3-yl)piperazin-1-yl)acetamido)spiro[3.3]heptan-2-yl)amino)-N-(1,5-dimethyl-1H-pyrazol-3-yl)-6-((methyl-d3)amino)nicotinamide] | 50 to 100 | 30 to 50 | 50 to 80 |
| [2H]C([2H])([2H])Nc1ccc(C(=O)Nc2ccc(N(C)C)nn2)c(NC2CCN(C(=O)CN3CCN(c4ccc(Nc5ncc6c(C)c(C(C)=O)c(=O)n(C7CCCC7)c6n5)nc4)CC3)CC2)n1 [CPD-250, 2-((1-(2-(4-(6-((6-acetyl-8-cyclopentyl-5-methyl-7-oxo-7,8-dihydropyrido[2,3-d]pyrimidin-2-yl)amino)pyridin-3-yl)piperazin-1-yl)acetyl)piperidin-4-yl)amino)-N-(6-(dimethylamino)pyridazin-3-yl)-6-((methyl-d3)amino)nicotinamide] | 50 to 100 | 30 to 50 | 50 to 80 |
| CNc1ccc(C(=O)Nc2ccc(N(C)C)nn2)c(NC2CCN(C(=O)CN3CCN(Cc4ccc(Nc5ncc6c(C)c(C(C)=O)c(=O)n(C7CCCC7)c6n5)nc4)CC3)CC2)n1 [CPD-300, 2-((1-(2-(4-((6-((6-acetyl-8-cyclopentyl-5-methyl-7-oxo-7,8-dihydropyrido[2,3-d]pyrimidin-2-yl)amino)pyridin-3-yl)methyl)piperazin-1-yl)acetyl)piperidin-4-yl)amino)-N-(6-(dimethylamino)pyridazin-3-yl)-6-(methylamino)nicotinamide] | 50 to 100 | < 30 | < 30 |
| CC(=O)c1c(C)c2cnc(Nc3ccc(N4CCN(CC(=O)NCC5CC(Nc6nc(NC(C)C)ccc6C(=O)Nc6ccc(N(C)C)nn6)C5)CC4)cn3)nc2n(C2CCCC2)c1=O (stereo not drawn) [CPD-316, 2-((3-((2-(4-(6-((6-acetyl-8-cyclopentyl-5-methyl-7-oxo-7,8-dihydropyrido[2,3-d]pyrimidin-2-yl)amino)pyridin-3-yl)piperazin-1-yl)acetamido)methyl)cyclobutyl)amino)-N-(6-(dimethylamino)pyridazin-3-yl)-6-(isopropylamino)nicotinamide] | < 50 | 30 to 50 | 30 to 50 |
| CC(=O)c1c(C)c2cnc(Nc3ccc(N4CCN(CC5(C(=O)N6CC7(CC(Nc8nc(NC(C)C)ccc8C(=O)Nc8cn(C)c(C9CC9)n8)C7)C6)CC5)CC4)cn3)nc2n(C2CCCC2)c1=O [CPD-322, 2-((2-(1-((4-(6-((6-acetyl-8-cyclopentyl-5-methyl-7-oxo-7,8-dihydropyrido[2,3-d]pyrimidin-2-yl)amino)pyridin-3-yl)piperazin-1-yl)methyl)cyclopropane-1-carbonyl)-2-azaspiro[3.3]heptan-6-yl)amino)-N-(2-cyclopropyl-1-methyl-1H-imidazol-4-yl)-6-(isopropylamino)nicotinamide] | < 50 | < 30 | < 30 |
| CC(=O)c1c(C)c2cnc(Nc3ccc(N4CCN(CCC(=O)N5CC6(CC(Nc7nc(NC(C)C)ccc7C(=O)Nc7cn(C)c(C8CC8)n7)C6)C5)CC4)cn3)nc2n(C2CCCC2)c1=O [CPD-323, 2-((2-(3-(4-(6-((6-acetyl-8-cyclopentyl-5-methyl-7-oxo-7,8-dihydropyrido[2,3-d]pyrimidin-2-yl)amino)pyridin-3-yl)piperazin-1-yl)propanoyl)-2-azaspiro[3.3]heptan-6-yl)amino)-N-(2-cyclopropyl-1-methyl-1H-imidazol-4-yl)-6-(isopropylamino)nicotinamide] | < 50 | < 30 | < 30 |
| CNc1ccc(C(=O)Nc2ccc(N(C)C)nn2)c(NC2CC3(C2)CN(C(=O)C2CC24CCN(c2ccc(Nc5ncc6c(C)c(C(C)=O)c(=O)n(C7CCCC7)c6n5)nc2)CC4)C3)n1 (stereo not drawn) [CPD-324, 2-((2-(6-(6-((6-acetyl-8-cyclopentyl-5-methyl-7-oxo-7,8-dihydropyrido[2,3-d]pyrimidin-2-yl)amino)pyridin-3-yl)-6-azaspiro[2.5]octane-1-carbonyl)-2-azaspiro[3.3]heptan-6-yl)amino)-N-(6-(dimethylamino)pyridazin-3-yl)-6-(methylamino)nicotinamide] | < 50 | < 30 | < 30 |
| CC(=O)c1c(C)c2cnc(Nc3ccc(N4CCN(C(C)C(=O)NC5CC(Nc6nc(NC(C)C)ccc6C(=O)Nc6ccc(N(C)C)nn6)C5)CC4)cn3)nc2n(C2CCCC2)c1=O (stereo not drawn) [CPD-326, 2-((3-(2-(4-(6-((6-acetyl-8-cyclopentyl-5-methyl-7-oxo-7,8-dihydropyrido[2,3-d]pyrimidin-2-yl)amino)pyridin-3-yl)piperazin-1-yl)propanamido)cyclobutyl)amino)-N-(6-(dimethylamino)pyridazin-3-yl)-6-(isopropylamino)nicotinamide] | 50 to 100 | < 30 | < 30 |
